Among the test systems are A498 renal; HCT-116 colon; KM12 colon; MALME-3M melanoma; MCF7 breast; NCI-H23 lung; SF-295 CNS; SNB-19 CNS; SNB-75 CNS; SW-620 colon.
What all share (assay): growth of human tumour cells (NCI), 48 h

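Where inhibition never reached the appropriate level, the endpoint shown equals the highest concentration tested. Otherwise, values were interpolated linearly from a five-concentration, 48-hour dose response in 96-well plates. TGI is the concentration that stops growth completely.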 Where only a bound is given, the exact number is not on record here.

In the case of `O=c1[nH]c2ccccc2c2oc(-c3ccccc3)nc12`, the TGI in the experiment with A498 renal was 59.5 µM; with HCT-116 colon, 69.3 µM; with KM12 colon it was greater than 100 µM; in the experiment on MALME-3M melanoma it was greater than 100 µM; in the experiment on MCF7 breast it was greater than 100 µM; with NCI-H23 lung, greater than 100 µM. Besides, the TGI in the experiment on SF-295 CNS is 57.6 µM; with SNB-19 CNS, 80.8 µM; in the experiment on SNB-75 CNS, 45.8 µM; in the experiment on SW-620 colon it was 58.1 µM.

As for `C/C=C\C(CC(=O)NCCC1CN(C(=O)c2ccccc2)c2ccccc21)CC(=O)OC` (stereo not given), the TGI in the experiment on A498 renal, in the experiment on HCT-116 colon, in the experiment with KM12 colon, in the experiment with MALME-3M melanoma, in the experiment on MCF7 breast and in the experiment on NCI-H23 lung was greater than 100 µM in each case. Further, the TGI with SF-295 CNS, in the experiment on SNB-19 CNS, in the experiment on SNB-75 CNS and with SW-620 colon was greater than 100 µM throughout.

In the case of `CC(C)(NC1=NCCO1)c1ccccc1`, the TGI with A498 renal, in the experiment with HCT-116 colon, with KM12 colon, in the experiment with MALME-3M melanoma, in the experiment with MCF7 breast and with NCI-H23 lung was greater than 100 µM each time. The TGI with SF-295 CNS, in the experiment with SNB-19 CNS, with SNB-75 CNS and with SW-620 colon was greater than 100 µM throughout.

With `CS(=O)(=O)O.[Ag]`, the TGI with A498 renal worked out at 40 µM; in the experiment with HCT-116 colon, 20 µM; with KM12 colon, 89.8 µM; in the experiment with MALME-3M melanoma, 3.79 µM; in the experiment with MCF7 breast it was 24.8 µM; in the experiment on NCI-H23 lung, 46.2 µM. The TGI is greater than 100 µM in the experiment with SF-295 CNS, 78.7 µM in the experiment on SNB-19 CNS, 35.6 µM in the experiment on SNB-75 CNS and 19.5 µM with SW-620 colon.

As to `CCOC(=O)C(=Cn1c(=S)[nH]c2ccc([N+](=O)[O-])cc21)C(=O)OCC`, the TGI in the experiment with A498 renal, in the experiment with HCT-116 colon, with KM12 colon, in the experiment with MALME-3M melanoma, in the experiment with MCF7 breast and in the experiment with NCI-H23 lung was greater than 100 µM throughout. Besides, the TGI in the experiment with SF-295 CNS, in the experiment on SNB-19 CNS, in the experiment on SNB-75 CNS and with SW-620 colon was greater than 100 µM in each case.

In the case of `CCOC(=O)C(C)c1nc2cc(N3CCN(C)CC3)c(F)cc2[nH]c1=O` (stereo not given), the TGI with A498 renal, with HCT-116 colon, with KM12 colon, in the experiment with MALME-3M melanoma, in the experiment on MCF7 breast and in the experiment with NCI-H23 lung was greater than 100 µM in each case. The TGI in the experiment on SF-295 CNS, with SNB-19 CNS, in the experiment with SNB-75 CNS and in the experiment with SW-620 colon was greater than 100 µM each time.

Take `Nc1nc2cc(CNc3ccc(C(=O)NC(CCC(=O)O)C(=O)O)cc3)ccc2nc1-c1ccccc1` (stereo not given): the TGI with A498 renal, in the experiment on HCT-116 colon, with KM12 colon, in the experiment on MALME-3M melanoma, with MCF7 breast and in the experiment with NCI-H23 lung was greater than 10 µM throughout. The TGI in the experiment on SF-295 CNS, in the experiment on SNB-19 CNS, with SNB-75 CNS and with SW-620 colon was greater than 10 µM each time.

Turning to `COc1ccc(/C=N/n2c(Cc3ccc(Cl)cc3)n[nH]c2=O)c(OC)c1`, the TGI in the experiment on A498 renal is 51.1 µM; with HCT-116 colon, greater than 100 µM; in the experiment with KM12 colon it was greater than 100 µM; in the experiment with MALME-3M melanoma, greater than 100 µM; with MCF7 breast it was greater than 100 µM; in the experiment with NCI-H23 lung it was greater than 100 µM. Further, the TGI is 42.9 µM in the experiment with SF-295 CNS, 48.4 µM in the experiment with SNB-19 CNS, 37.5 µM in the experiment with SNB-75 CNS and greater than 100 µM with SW-620 colon.

The record behind these values is PubChem BioAssay (NCI).
